pEC50, pIC50, pKi: −log10 of the molar value. The source made the active and inactive calls. No cut-off for these calls is given here.
Columns and labels:
[1] = target: T1, Retinoic acid receptor RXR-alpha (Homo sapiens, UniProt P19793)
T1 sequence (P19793 whole entry): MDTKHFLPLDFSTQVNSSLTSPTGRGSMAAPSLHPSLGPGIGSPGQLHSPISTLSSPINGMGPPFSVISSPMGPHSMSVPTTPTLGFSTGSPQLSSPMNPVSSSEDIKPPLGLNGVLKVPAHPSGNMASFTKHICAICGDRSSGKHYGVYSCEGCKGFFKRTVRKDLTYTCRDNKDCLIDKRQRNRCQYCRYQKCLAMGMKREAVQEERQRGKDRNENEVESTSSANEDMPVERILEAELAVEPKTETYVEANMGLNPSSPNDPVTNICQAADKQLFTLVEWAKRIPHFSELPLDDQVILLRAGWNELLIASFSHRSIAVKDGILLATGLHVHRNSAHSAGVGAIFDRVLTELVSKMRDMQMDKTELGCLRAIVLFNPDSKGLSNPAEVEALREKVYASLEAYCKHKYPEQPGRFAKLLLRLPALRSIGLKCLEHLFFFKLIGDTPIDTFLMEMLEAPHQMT
Description: Binding affinity against Retinoic acid receptor RXR-alpha was determined in vitro by using [3H]9-cis-RA as radioligand

[2] = target: T1, Retinoic acid receptor RXR-alpha; experiment: Inhibitory activity against Retinoic acid receptor RXR-alpha antagonist was determined in vitro; format: functional
[3] = target: T2, Retinoic acid receptor gamma (Homo sapiens, UniProt P13631); experiment: Binding affinity against Retinoic acid receptor gamma was determined in vitro by using [3H]ATRA as radioligand
T2 sequence (P13631 whole entry): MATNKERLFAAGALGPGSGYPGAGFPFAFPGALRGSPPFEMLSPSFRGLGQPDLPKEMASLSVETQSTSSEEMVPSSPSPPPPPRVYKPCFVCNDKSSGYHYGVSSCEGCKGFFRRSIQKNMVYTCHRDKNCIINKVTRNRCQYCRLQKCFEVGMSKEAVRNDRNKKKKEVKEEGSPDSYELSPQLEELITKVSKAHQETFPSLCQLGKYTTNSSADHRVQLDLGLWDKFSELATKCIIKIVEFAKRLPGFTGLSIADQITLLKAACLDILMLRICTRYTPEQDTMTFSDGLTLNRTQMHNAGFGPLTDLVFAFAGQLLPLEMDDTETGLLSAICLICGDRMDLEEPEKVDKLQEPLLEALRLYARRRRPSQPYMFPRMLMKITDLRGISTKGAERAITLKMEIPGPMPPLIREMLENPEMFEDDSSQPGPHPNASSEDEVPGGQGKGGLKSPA

RXR alpha/PPAR gamma = RXR alpha/PPAR gamma (Homo sapiens, UniProt P19793)
RXR alpha/PPAR gamma, sequence (P37231 whole entry, one chain of several): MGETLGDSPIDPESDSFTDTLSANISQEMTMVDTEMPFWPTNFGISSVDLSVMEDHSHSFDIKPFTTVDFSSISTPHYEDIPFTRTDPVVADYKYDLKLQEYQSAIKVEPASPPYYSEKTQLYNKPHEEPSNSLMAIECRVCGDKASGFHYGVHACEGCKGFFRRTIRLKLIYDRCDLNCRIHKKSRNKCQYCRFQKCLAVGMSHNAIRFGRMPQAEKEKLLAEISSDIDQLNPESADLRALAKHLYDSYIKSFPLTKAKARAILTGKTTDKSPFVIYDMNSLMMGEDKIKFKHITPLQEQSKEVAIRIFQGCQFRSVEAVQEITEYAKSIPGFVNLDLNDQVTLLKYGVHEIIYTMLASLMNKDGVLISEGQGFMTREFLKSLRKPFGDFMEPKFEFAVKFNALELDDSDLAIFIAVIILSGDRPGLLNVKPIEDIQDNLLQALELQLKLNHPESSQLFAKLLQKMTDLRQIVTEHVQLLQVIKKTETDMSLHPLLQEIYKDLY
Description: Transcriptional activity against RXR:PPAR-gamma synergy was determined in vitro

[4] = RXR:RAR synergy expressed as fold induction
[5] = target: T1, Retinoic acid receptor RXR-alpha; remark: listed apart in the source
Description: Inhibition of Retinoic acid receptor RXR-alpha agonist activity in vitro

Rattus norvegicus [6] = organism: Rattus norvegicus; experiment: Effect on triglyceride level in male Dawley rats at 24 hr r; format: functional
Mus musculus [7] = experiment: In vivo hypoglycemic activity, as reduced plasma glucose in db/db mouse type II diabetes model; format: functional
[8] = Transcriptional activation in CV-1 cells expressing RXR and LXR at 1 uM; format: functional
Rattus norvegicus [9] = organism: Rattus norvegicus; experiment: Effect on T4 levels in male Dawley rats at 24 hr r; format: functional
Mus musculus [10] = experiment: In vivo hypoglycemic activity compared to BRL-46953 as reduced plasma glucose in db/db mouse type II diabetes model; format: functional
[11] = target: T3, Retinoic acid receptor RXR-alpha (Homo sapiens) (UniProt P19793)
T3 sequence (whole entry): T1 sequence (P19793 whole entry)

Row | SMILES | pKi [1] | pIC50 [2] | pKi [3] | pEC50 (RXR alpha/PPAR gamma) | Synergy [4] [fold] | pEC50 [5] | Activity (Rattus norvegicus [6]) [mg/dL] | Activity (Mus musculus [7]) [mg/dL] | Activation [8] [fold] | Activity (Rattus norvegicus [9]) [ng/mL] | Normalization (Mus musculus [10]) [%] | NB [11]
1 | C/C(=C/C=C/C(C)=C/C(=O)O)c1cc(C(C)C)cc(C(C)C)c1OCCF | 9.00 | 8.40 | 5.00 | 8.40 | 4 | 8.15 |  |  |  |  |  | 
2 | CCOc1c(\C(C)=C/C=C/C(C)=C/C(=O)O)cc(C(C)(C)C)cc1C(C)(C)C | 7.96 | 8.10 | 5.00 | 8.70 | 3 | 7.74 | 92 | 412 | 2.04 | 25 | 100 | 
3 | CCC(C)(C)c1cc(\C(C)=C/C=C/C(C)=C/C(=O)O)c(OC)c(C(C)(C)CC)c1 | 8.70 |  | 5.00 | 8.22 | 2 | 6.30 |  |  |  |  |  | 
4 | CCCOc1c(\C(C)=C/C=C/C(C)=C/C(=O)O)cc(C(C)(C)CC)cc1C(C)(C)CC | 7.64 | 7.89 | 5.00 | 7.72 | 1 |  |  |  |  |  |  | 
5 | COc1c(\C(C)=C/C=C/C(C)=C/C(=O)O)cc(C(C)C)cc1C(C)C | 9.00 |  | 5.00 | 8.10 | 10 | 8.70 |  |  |  |  |  | 
6 | Cc1cc2c(cc1C1(c3ccc(C(=O)O)cn3)CC1)C(C)(C)CCC2(C)C |  |  |  |  | 7 |  | 152 | 400 | 6.3 | 37 | 101 | 
7 | CN(CCOc1ccc(CC2SC(=O)NC2=O)cc1)c1ccccn1.O=C(O)/C=C\C(=O)O (stereo not drawn) [ROSIGLITAZONE MALEATE] |  |  |  |  |  |  | 78 | 412 |  | 70 | 100 | inactive
8 | CCOc1c(\C(C)=C/C=C/C(C)=C/C(=O)O)cc(C(C)C)cc1C(C)C | 8.70 |  | 5.00 | 9.00 | 5 | 8.70 |  |  |  |  |  | 
9 | COc1c(\C(C)=C/C=C/C(C)=C/C(=O)O)cc(C(C)(C)C)cc1C(C)(C)C | 9.00 |  | 5.00 | 8.15 | 3 | 7.44 |  |  |  |  |  | 
10 | C/C(=C/C=C/C(C)=C/C(=O)O)c1cc(C(C)(C)C)cc(C(C)(C)C)c1OCC(F)F |  |  | 5.00 |  | 2 |  | 75 | 409 | 1.2 | 70 | 101 | 
11 | CCCCOc1c(\C(C)=C/C=C/C(C)=C/C(=O)O)cc(C(C)C)cc1C(C)C | 8.40 | 8.40 | 5.00 | 7.92 | 1 |  | 63 | 502 | 0.6 | 72 | 33 | 
12 | C/C(=C/C=C/C(C)=C/C(=O)O)c1cc(C(C)C)cc(C(C)C)c1OCC(F)F | 8.70 | 9.00 | 5.00 | 8.00 | 3 |  |  |  |  |  |  | 
13 | CCCOc1c(\C(C)=C/C=C/C(C)=C/C(=O)O)cc(C(C)C)cc1C(C)C | 8.52 | 8.40 | 5.00 | 8.30 | 2 |  |  |  |  |  |  | 

More lines, main results first:

Row | pKi [1] | pIC50 [2] | pKi [3] | pEC50 (RXR alpha/PPAR gamma) | Synergy [4] [fold] | pEC50 [5] | SMILES | Activity (Rattus norvegicus [6]) [mg/dL] | Activity (Mus musculus [7]) [mg/dL] | Activation [8] [fold] | Activity (Rattus norvegicus [9]) [ng/mL] | Normalization (Mus musculus [10]) [%] | NB [11]
14 | 8.52 | 8.22 | 5.73 | 8.52 | 2 |  | C/C(=C/C=C/C(C)=C/C(=O)O)c1cc(C(C)C)cc(C(C)C)c1OCC(F)(F)F |  |  |  |  |  | 
15 | 7.85 | 7.37 | 5.00 | 6.81 | 1 |  | CCCOc1c(\C(C)=C/C=C/C(C)=C/C(=O)O)cc(C(C)(C)C)cc1C(C)(C)C |  |  |  |  |  | 
16 |  | 7.80 | 5.00 | 7.96 | 1 |  | CCC(C)(C)c1cc(\C(C)=C/C=C/C(C)=C/C(=O)O)c(OCC(F)F)c(C(C)(C)CC)c1 |  |  |  |  |  | 
17 |  | 8.10 | 5.39 | 8.70 | 1 |  | C/C(=C/C=C/C(C)=C/C(=O)O)c1cc(C(C)(C)C)cc(C(C)(C)C)c1OCC(F)(F)F |  |  |  |  |  | 
18 | 8.70 | 7.77 | 5.60 | 8.05 | 2 |  | CCOc1c(\C(C)=C/C=C/C(C)=C/C(=O)O)cc(C(C)(C)CC)cc1C(C)(C)CC |  |  |  |  |  | 
